Test results reported in the NIST ThermoML archive (doi:10.1021/acs.jced.8b00554).
Numbers after ± are expanded uncertainties.

Assay: xn = mol fraction of the nth substance listed
Settings: Liquid, Vibrating tube method

CCCCCCCCC [nonane] + CCCO
mass density [kg/m3]
Settings	353.15 K	363.15 K
100 kPa, x2 = 0.1231	–	655.98 ± 4.2
100 kPa, x2 = 0.2315	–	657.04 ± 4.2
100 kPa, x2 = 0.3229	–	658.57 ± 4.2
100 kPa, x2 = 0.4272	–	662.45 ± 4.2
100 kPa, x2 = 0.7021	–	683 ± 4.4
100 kPa, x2 = 0.8941	–	710.52 ± 4.5
1000 kPa, x2 = 0.1231	–	657.23 ± 4.2
1000 kPa, x2 = 0.8941	–	710.94 ± 4.5
1010 kPa, x2 = 0.2315	–	659.34 ± 4.2
1010 kPa, x2 = 0.4272	–	664.09 ± 4.2
1010 kPa, x2 = 0.7021	–	683.53 ± 4.4
1020 kPa, x2 = 0.3229	–	660.57 ± 4.2
2010 kPa, x2 = 0.1231	–	658.47 ± 4.2
2010 kPa, x2 = 0.2315	–	660.57 ± 4.2
2010 kPa, x2 = 0.3229	–	661.82 ± 4.2
2010 kPa, x2 = 0.4272	–	665.32 ± 4.3
2010 kPa, x2 = 0.7021	–	684.79 ± 4.4
2010 kPa, x2 = 0.8941	–	712.1 ± 4.6
3010 kPa, x2 = 0.2315	–	661.79 ± 4.2
3010 kPa, x2 = 0.3229	–	663.05 ± 4.2
3010 kPa, x2 = 0.7021	–	686.04 ± 4.4
3010 kPa, x2 = 0.8941	–	713.33 ± 4.6
3020 kPa, x2 = 0.1231	–	659.67 ± 4.2
3020 kPa, x2 = 0.4272	–	666.57 ± 4.3
4010 kPa, x2 = 0.1231	–	660.89 ± 4.2
4010 kPa, x2 = 0.3229	–	664.28 ± 4.3
4010 kPa, x2 = 0.4272	–	667.83 ± 4.3
4010 kPa, x2 = 0.7021	–	687.34 ± 4.4
4010 kPa, x2 = 0.8941	–	714.55 ± 4.6
4020 kPa, x2 = 0.2315	–	663.04 ± 4.2
5000 kPa, x2 = 0.4272	–	669.09 ± 4.3
5000 kPa, x2 = 0.7021	–	688.61 ± 4.4
5010 kPa, x2 = 0.1231	–	662.09 ± 4.2
5010 kPa, x2 = 0.2315	–	664.23 ± 4.3
5010 kPa, x2 = 0.3229	–	665.52 ± 4.3
5010 kPa, x2 = 0.8941	–	715.78 ± 4.6
6000 kPa, x2 = 0.7021	–	689.86 ± 4.4
6010 kPa, x2 = 0.2315	–	665.41 ± 4.3
6010 kPa, x2 = 0.4272	–	670.36 ± 4.3
6010 kPa, x2 = 0.8941	–	717.03 ± 4.6
6020 kPa, x2 = 0.1231	–	663.3 ± 4.2
6020 kPa, x2 = 0.3229	–	666.76 ± 4.3
7000 kPa, x2 = 0.3229	–	667.99 ± 4.3
7000 kPa, x2 = 0.7021	–	691.15 ± 4.4
7010 kPa, x2 = 0.1231	–	664.48 ± 4.3
7010 kPa, x2 = 0.2315	–	666.62 ± 4.3
7020 kPa, x2 = 0.4272	–	671.62 ± 4.3
7020 kPa, x2 = 0.8941	–	718.27 ± 4.6
8000 kPa, x2 = 0.3229	–	669.23 ± 4.3
8000 kPa, x2 = 0.7021	–	692.44 ± 4.4
8010 kPa, x2 = 0.8941	–	719.48 ± 4.6
8020 kPa, x2 = 0.1231	–	665.72 ± 4.3
8020 kPa, x2 = 0.2315	–	667.87 ± 4.3
8020 kPa, x2 = 0.4272	–	672.88 ± 4.3
9000 kPa, x2 = 0.2315	–	669.09 ± 4.3
9000 kPa, x2 = 0.3229	–	670.48 ± 4.3
9010 kPa, x2 = 0.7021	–	693.71 ± 4.5
9010 kPa, x2 = 0.8941	–	720.71 ± 4.6
9020 kPa, x2 = 0.1231	–	666.89 ± 4.3
9020 kPa, x2 = 0.4272	–	674.14 ± 4.3
10010 kPa, x2 = 0.1231	–	668.07 ± 4.3
10010 kPa, x2 = 0.2315	–	670.27 ± 4.3
10010 kPa, x2 = 0.3229	–	671.75 ± 4.3
10010 kPa, x2 = 0.4272	–	675.41 ± 4.3
10010 kPa, x2 = 0.7021	–	694.96 ± 4.5
10010 kPa, x2 = 0.8941	–	721.93 ± 4.6
11000 kPa, x2 = 0.1231	679.16 ± 4.4	–
11000 kPa, x2 = 0.4272	688.79 ± 4.4	–
11010 kPa, x2 = 0.1231	–	669.29 ± 4.3
11010 kPa, x2 = 0.2315	682.07 ± 4.4	671.48 ± 4.3
11010 kPa, x2 = 0.3229	–	672.98 ± 4.3
11010 kPa, x2 = 0.4272	–	676.62 ± 4.3
11010 kPa, x2 = 0.7021	709.06 ± 4.5	–
11010 kPa, x2 = 0.8941	735.52 ± 4.7	723.15 ± 4.6
11020 kPa, x2 = 0.3229	684.47 ± 4.4	–
11020 kPa, x2 = 0.7021	–	696.2 ± 4.5
12000 kPa, x2 = 0.3229	685.59 ± 4.4	674.18 ± 4.3
12000 kPa, x2 = 0.7021	710.18 ± 4.5	697.42 ± 4.5
12010 kPa, x2 = 0.1231	680.24 ± 4.4	670.44 ± 4.3
12010 kPa, x2 = 0.2315	683.2 ± 4.4	672.7 ± 4.3
12010 kPa, x2 = 0.4272	689.92 ± 4.4	677.87 ± 4.3
12010 kPa, x2 = 0.8941	736.6 ± 4.7	724.32 ± 4.6
13000 kPa, x2 = 0.4272	–	679.08 ± 4.4
13000 kPa, x2 = 0.8941	–	725.44 ± 4.7
13010 kPa, x2 = 0.1231	681.32 ± 4.4	671.61 ± 4.3
13010 kPa, x2 = 0.3229	–	675.41 ± 4.3
13010 kPa, x2 = 0.4272	691.03 ± 4.4	–
13010 kPa, x2 = 0.7021	711.31 ± 4.6	698.65 ± 4.5
13010 kPa, x2 = 0.8941	737.63 ± 4.7	–
13020 kPa, x2 = 0.2315	684.28 ± 4.4	673.89 ± 4.3
13020 kPa, x2 = 0.3229	686.69 ± 4.4	–
14000 kPa, x2 = 0.3229	687.76 ± 4.4	676.57 ± 4.3
14000 kPa, x2 = 0.4272	692.13 ± 4.4	–
14000 kPa, x2 = 0.8941	738.72 ± 4.7	–
14010 kPa, x2 = 0.1231	682.37 ± 4.4	–
14010 kPa, x2 = 0.2315	685.35 ± 4.4	–
14010 kPa, x2 = 0.4272	–	680.27 ± 4.4
14010 kPa, x2 = 0.7021	–	699.83 ± 4.5
14010 kPa, x2 = 0.8941	–	726.63 ± 4.7
14020 kPa, x2 = 0.1231	–	672.74 ± 4.3
14020 kPa, x2 = 0.2315	–	675.04 ± 4.3
14020 kPa, x2 = 0.7021	712.38 ± 4.6	–
15000 kPa, x2 = 0.2315	–	676.17 ± 4.3
15000 kPa, x2 = 0.4272	693.19 ± 4.5	–
15010 kPa, x2 = 0.1231	683.4 ± 4.4	673.85 ± 4.3
15010 kPa, x2 = 0.3229	688.83 ± 4.4	677.73 ± 4.3
15010 kPa, x2 = 0.4272	–	681.42 ± 4.4
15010 kPa, x2 = 0.7021	713.45 ± 4.6	–
15010 kPa, x2 = 0.8941	–	727.76 ± 4.7
15020 kPa, x2 = 0.2315	686.39 ± 4.4	–
15020 kPa, x2 = 0.7021	–	700.99 ± 4.5
15020 kPa, x2 = 0.8941	739.75 ± 4.7	–
16000 kPa, x2 = 0.2315	687.43 ± 4.4	677.27 ± 4.3
16000 kPa, x2 = 0.8941	740.76 ± 4.8	–
16010 kPa, x2 = 0.1231	684.41 ± 4.4	674.91 ± 4.3
16010 kPa, x2 = 0.3229	–	678.86 ± 4.4
16010 kPa, x2 = 0.4272	694.24 ± 4.5	682.56 ± 4.4
16010 kPa, x2 = 0.7021	714.52 ± 4.6	–
16020 kPa, x2 = 0.3229	689.88 ± 4.4	–
16020 kPa, x2 = 0.7021	–	702.15 ± 4.5
16020 kPa, x2 = 0.8941	–	728.86 ± 4.7
17000 kPa, x2 = 0.1231	–	676 ± 4.3
17000 kPa, x2 = 0.8941	741.78 ± 4.8	729.95 ± 4.7
17010 kPa, x2 = 0.1231	685.42 ± 4.4	–
17010 kPa, x2 = 0.2315	–	678.41 ± 4.4
17010 kPa, x2 = 0.3229	690.92 ± 4.4	–
17010 kPa, x2 = 0.4272	695.25 ± 4.5	683.64 ± 4.4
17010 kPa, x2 = 0.7021	715.56 ± 4.6	–
17020 kPa, x2 = 0.2315	688.48 ± 4.4	–
17020 kPa, x2 = 0.3229	–	679.98 ± 4.4
17020 kPa, x2 = 0.7021	–	703.28 ± 4.5
18000 kPa, x2 = 0.3229	691.91 ± 4.4	–
18000 kPa, x2 = 0.7021	716.55 ± 4.6	–
18010 kPa, x2 = 0.1231	686.41 ± 4.4	677.05 ± 4.3
18010 kPa, x2 = 0.2315	689.45 ± 4.4	679.45 ± 4.4
18010 kPa, x2 = 0.4272	–	684.75 ± 4.4
18010 kPa, x2 = 0.7021	–	704.37 ± 4.5
18010 kPa, x2 = 0.8941	742.76 ± 4.8	–
18020 kPa, x2 = 0.3229	–	681.03 ± 4.4
18020 kPa, x2 = 0.4272	696.27 ± 4.5	–
18020 kPa, x2 = 0.8941	–	731.02 ± 4.7
19000 kPa, x2 = 0.2315	–	680.43 ± 4.4
19000 kPa, x2 = 0.3229	692.9 ± 4.5	–
19000 kPa, x2 = 0.4272	697.25 ± 4.5	–
19000 kPa, x2 = 0.7021	–	705.41 ± 4.5
19010 kPa, x2 = 0.1231	687.34 ± 4.4	678.04 ± 4.3
19010 kPa, x2 = 0.2315	690.38 ± 4.4	–
19010 kPa, x2 = 0.3229	–	682.1 ± 4.4
19010 kPa, x2 = 0.4272	–	685.8 ± 4.4
19010 kPa, x2 = 0.8941	743.72 ± 4.8	732.06 ± 4.7
19020 kPa, x2 = 0.7021	717.54 ± 4.6	–
20000 kPa, x2 = 0.1231	688.24 ± 4.4	–
20000 kPa, x2 = 0.2315	691.33 ± 4.4	–
20000 kPa, x2 = 0.3229	693.81 ± 4.5	–
20010 kPa, x2 = 0.1231	–	679 ± 4.4
20010 kPa, x2 = 0.2315	–	681.42 ± 4.4
20010 kPa, x2 = 0.3229	–	683.05 ± 4.4
20010 kPa, x2 = 0.4272	698.23 ± 4.5	686.85 ± 4.4
20010 kPa, x2 = 0.7021	718.51 ± 4.6	–
20020 kPa, x2 = 0.7021	–	706.48 ± 4.5
20020 kPa, x2 = 0.8941	744.66 ± 4.8	733.04 ± 4.7
